Assays:
[1] = target: HLA-DRB1*0401 (Homo sapiens (Human), UniProt P01903+P01911, A100K/A169T/DEL228-266/F76Y/I96L/K127E/L162R/M171V/N62H/P40V/Q125Y/R42H/S133A/S149N/S66Y/V115G/V209L/W38E); assay: HLA-DR4 HTRF assay; format: binding; settings: inhibition of loading of Alexa Fluor 647-labeled Cit-CII peptide onto HLA-DR4 (CLIP cleaved)
Description: (§1) The screening was made through two sets of HLA-DR/peptide-dependent assays: a peptide-dependent Homogeneous Time Resolved Fluorescence (HTRF) binding assay followed by an HLA-DR dependent, peptide-specific T cell functional assay (HLA-DR4-restricted peptide-specific T cell-based assay hybridoma assay). The HTRF binding assay was designed to measure the ability of the small molecule to inhibit the loading of a fluorescently labeled high-affinity peptide onto HLA-DR peptide binding groove. The peptide-specific T cell functional assay assesses T cell activation resulting from proper peptide presentation onto HLA-DR expressed on the surface of the antigen-presenting cells to the T cell and is used to screen compounds able to inhibit such HLA-DR/peptide-dependent T cell activation.
The HLA-DR4 HTRF assay is based on HTRF technology and designed to measure ability of compounds to prevent loading of high-affinity Alexa Fluor 647-labeled Citrullinated Collagen 111236-1249 peptide (named Cit-CII/AF647, aa1236-1249, LQYM-Cit-ADQAAGGLR; Alexa Fluor 647 dye commercially available from Invitrogen) onto HLA-DRB1*0401. The HTRF assay technology is based on the energy transfer between two fluorophores, a donor and an acceptor, when in close proximity. The HLA-DR4 protein construct was uniquely designed for this assay and has (i) the α and […] subunits fused to human Fc chains and (ii) the invariant chain-associated peptide (CLIP peptide, aa85-101), the universal moderate/low-affinity HLA-DR binder, attached to the beta chain through a HRV3C protease-cleavable linker.
Because of the low stability of peptide free HLA-DR4 heterodimer, the construct was purified and delivered with CLIP peptide attached to the N-terminal of the β chain. The HLA-DR4 heterodimer was pre-treated with 3 μL HRV3C protease (Novagen E71493-3) (˜2 U/μL) per mg of the cleavable protein to cleave CLIP peptide and incubated overnight (>16 hrs) at 4° C. This method yielded at least 80% cleavage and allowed the CLIP peptide to be potentially exchanged with the fluorescently labeled high affinity cit-CII1236-1249 peptide. A batch of […] protein with CLIP cleaved was prepared for multiple experiments and was stable for several months when stored at 4° C.
In this assay, anti-human Fc antibody labeled with Tb-Cryptate probe was used as the donor (commercially available from Cisbio—PAb Anti-human IgG-Tb Cryptate, Cat #61HFCTAB) and high affinity peptide Citrullinated CII (cit-CII) labeled with Alexa 647 fluorophore was utilized as the acceptor. Inhibitors of the exchange of the pre-cleaved CLIP peptide for the high affinity cit-CII1236-1249 peptide onto HLA-DRB1*04:01 caused a decrease in HTRF signal as measured by the ratio of the 665 nm/620 nm emitted signal. Screening compounds were robotically pre-dispensed (150 nL, Hummingbird, DigiLab/CyBio AG) onto black, round bottom, nontreated, 1536-well assay plates (Corning #3939), were incubated with 3 nM HLA-DR4 (with CLIP cleaved) plus 1 nM Human IgG-Tb (anti-Fc-Tb) Antibody for 45 min prior to addition of 40 nM Cit-CII peptide labeled with Alexa-647. The negative control was DMSO plus 1 nM Human IgG-Tb (anti-Fc-Tb) Antibody, incubated for 45 minutes before addition of 40 nM Cit-CII peptide labeled with Alexa-647. The positive control was DMSO plus 3 nM HLA-DR4 (with CLIP cleaved) plus 1 nM Human IgG-Tb (anti-Fc-Tb) Antibody with 40 nM Cit-CII peptide labeled with Alexa-647 added after a 45-minute incubation. Plates were centrifuged at 1000 rpm for 1 minute and then incubated at 37° C., at 90% relative humidity for 90 minutes. After incubation, plates were read on a spectrophotometer, the Pherastar FS (BMG Labtech), in HTRF mode. The HTRF ratio as well as percent inhibition was calculated. Curve fitting and IC50 calculation for dose response data was performed by Microsoft Excel, 3DX (Janssen proprietary software) or Graphpad Prism (Graphpad Software, San Diego, CA). […]

[2] = test system: HLA-DR4 restricted mouse T cell hybridoma line (DR4.CII.36.8) with HLA-DRB1*04:01-expressing Boleth cells; assay: HLA-DR4-restricted peptide-specific T cell-based assay (hybridoma assay); settings: Mus musculus, T-cell, 6 h, inhibition of IL-2 production, CII259-273 peptide presented by Boleth cells
Description: as §1
HLA-DR4-Restricted Peptide-Specific T Cell-Based Assay (Hybridoma Assay)
The hybridoma assay was used to measure compound inhibition of TL-2 production from an HLA-DR4 restricted mouse T cell hybridoma line (DR4.CII.36.8) that was antigen-specific for collagen II259-273 (CII259-273) peptide when presented with an HLA-DR4 expressing Antigen Presenting Cell (APC) cell line (i.e., Boleth).
To the HLA-DRB1*04:01-expressing B cell line (Boleth cell line from International Histocompatibility Working Group (IHWG), ref #IHW09031) was presented the collagen II 259-273 peptide (CII259-273, GIAGFKGEQGPKGEP) to mouse T cell hybridoma (DR4.CII.36.8 T cell hybridoma; clone 36.8, expressing a CII259-273-specific, HLA-DRB1*04:01-restricted T cell receptor). Upon proper CII259-273 peptide presentation, the T cell hybridoma was activated and thus produced IL-2 cytokine, whose level in the cell culture supernatant was detected using mouse IL-2 AlphaLISA kit (Perkin Elmer, Cat: AL511F).
This assay was performed in a 384-well plate (polypropylene V-bottom Greiner bio-one, ref #784075) by: (i) pre-incubation of 20 μL of 1.25 million/mL Boleth cells (25,000 cells) resuspended in DMEM/1% fetal calf serum (FCS; Gibco, ref #16140-071) with 20 μL of 2.5× final concentration of compound of interest in DMEM/1% serum/0.75% DMSO at 37° C. for 1 hr in the incubator, then (ii) 10 μL of 5 million/mL (50,000 cells) DR4.CII.36.8 T cell hybridoma cells resuspended in DMEM/1% FCS was added and incubated for 6 h at 37° C. in the incubator. Supernatant was then collected and mouse IL-2 detected using AlphaLISA kit (ref #AL511F). Compounds were tested in duplicate, with 8-point titration. Mean±SD of AlphaLISA units at each compound concentration was used for compound IC50 calculation. The negative control for this experiment was run without peptide stimulation and used a DMSO vehicle wherein no compound of interest was added. The positive control was run with peptide stimulation and used a DMSO vehicle wherein no compound of interest was added. Both the negative and positive controls were run in 8 replicates each. Curve fitting and IC50 calculation for dose response data was performed by GraphPad software 6 or higher (GraphPad Software, San Diego, CA). Dose response data was plotted versus the log of compound concentration and IC50 was determined using 4-parameter logistic (4-PL) curve fitting.

| Structure (SMILES) | IC50 [1] | IC50 [2] |
| --- | --- | --- |
| Cc1cnccc1[C@H](Oc1ccc2c(c1)OCCC2=O)c1ccc(C(N)=O)cc1 (single isomer, unassigned) [Example 21a, (*R)-4-((3-Methylpyridin-4-yl)((4-oxochroman-7-yl)oxy)methyl)benzamide] | 1 µM | 5.4 µM |
| Cc1cnccc1[C@@H](Oc1ccc2c(c1)OCCC2=O)c1ccc(C(N)=O)cc1 (single isomer, unassigned) [Example 21b, (*S)-4-((3-Methylpyridin-4-yl)((4-oxochroman-7-yl)oxy)methyl)benzamide] | 0.64 µM | 5.4 µM |
| COc1cnccc1[C@H](Oc1ccc2c(c1)OCCC2=O)c1ccc(C(N)=O)cc1 (single isomer, unassigned) [Example 23a, (*R)-4-((3-methoxypyridin-4-yl)((4-oxochroman-7-yl)oxy)methyl)benzamide] | 0.45 µM | 10 µM |
| NC(=O)c1ccc([C@@H](Oc2ccc3c(c2)OCCC3=O)c2ccncc2-c2ccccc2)cc1 (single isomer, unassigned) [Example 25a, (*R)-4-(((4-oxochroman-7-yl)oxy)(3-phenylpyridin-4-yl)methyl)benzamide] | 0.48 µM | 6.4 µM |
| NC(=O)c1ccc([C@@H](Oc2ccc3c(c2)OCCC3=O)c2ccncc2N)cc1 (single isomer, unassigned) [Example 27a, (*R)-4-((3-aminopyridin-4-yl)((4-oxochroman-7-yl)oxy)methyl)benzamide] | 7.3 µM | 13 µM |
| NC(=O)c1ccc([C@H](Oc2ccc3c(c2)OCCC3=O)c2ccncc2N)cc1 (single isomer, unassigned) [Example 27b, (*S)-4-((3-aminopyridin-4-yl)((4-oxochroman-7-yl)oxy)methyl)benzamide] | 6.4 µM | > 15 µM |
| NC(=O)c1ccc([C@@H](Oc2ccc3c(c2)OCCC3=O)c2ccnc(N)c2)cc1 (single isomer, unassigned) [Example 28a, (*R)-4-((2-aminopyridin-4-yl)((4-oxochroman-7-yl)oxy)methyl)benzamide] | 1.8 µM | 6.9 µM |
| NC(=O)c1ccc([C@@H](Oc2ccc3c(c2)OCCC3=O)c2ccc(Cl)cc2)cc1 (single isomer, unassigned) [Example 30a, (*R)-4-((4-Chlorophenyl)((4-oxochroman-7-yl)oxy)methyl)benzamide] | 0.93 µM | 5.9 µM |
| NC(=O)c1ccc([C@H](Oc2ccc3c(c2)OCCC3=O)c2ccc(Cl)cc2)cc1 (single isomer, unassigned) [Example 30b, (*S)-4-((4-Chlorophenyl)((4-oxochroman-7-yl)oxy)methyl)benzamide] | 1.2 µM | 6.4 µM |
| NC(=O)c1ccc([C@@H](Oc2ccc3c(c2)OCCC3=O)c2ccccn2)cc1 (single isomer, unassigned) [Example 32a, (*R)-4-(((4-oxochroman-7-yl)oxy)(pyridin-2-yl)methyl)benzamide] | 3.6 µM | 8.2 µM |
| NC(=O)c1ccc([C@H](Oc2ccc3c(c2)OCCC3=O)c2ccccn2)cc1 (single isomer, unassigned) [Example 32b, (*S)-4-(((4-oxochroman-7-yl)oxy)(pyridin-2-yl)methyl)benzamide] | 1.9 µM | > 15 µM |
| NC(=O)c1ccc([C@@H](Oc2ccc3c(c2)OCCC3=O)c2ccncn2)cc1 (single isomer, unassigned) [Example 33a, (*R)-4-(((4-Oxochroman-7-yl)oxy)(pyrimidin-4-yl)methyl)benzamide] | 0.58 µM | 8.7 µM |
| NC(=O)c1ccc([C@H](Oc2ccc3c(c2)OCCC3=O)c2ccncn2)cc1 (single isomer, unassigned) [Example 33b, (*S)-4-(((4-Oxochroman-7-yl)oxy)(pyrimidin-4-yl)methyl)benzamide] | 0.59 µM | > 15 µM |
| Cc1cc([C@@H](Oc2ccc3c(c2)OCCC3=O)c2ccncc2)ccc1C(N)=O (single isomer, unassigned) [Example 35a, (*R)-2-methyl-4-(((4-oxochroman-7-yl)oxy)(pyridin-4-yl)methyl)benzamide] | 0.96 µM | > 15 µM |
| Cc1cc([C@H](Oc2ccc3c(c2)OCCC3=O)c2ccncc2)ccc1C(N)=O (single isomer, unassigned) [Example 35b, (*S)-2-methyl-4-(((4-oxochroman-7-yl)oxy)(pyridin-4-yl)methyl)benzamide] | 0.83 µM | 5.2 µM |
| Cc1cc(C(N)=O)ccc1[C@@H](Oc1ccc2c(c1)OCCC2=O)c1ccncc1 (single isomer, unassigned) [Example 36b, (*S)-3-methyl-4-(((4-oxochroman-7-yl)oxy)(pyridin-4-yl)methyl)benzamide] | 0.57 µM | 5.1 µM |
| C[C@@H]1CC(=O)c2ccc(O[C@H](c3ccncc3)c3ccc(C(N)=O)cc3)cc2O1 (single isomer, unassigned) [Example 39a, 4-((*S)—(((*R)-2-Methyl-4-oxochroman-7-yl)oxy)(pyridin-4-yl)methyl)benzamide] | 1.1 µM | 14 µM |
| C[C@H]1CC(=O)c2ccc(O[C@H](c3ccncc3)c3ccc(C(N)=O)cc3)cc2O1 (single isomer, unassigned) [Example 39d, 4-((*S)—(((*S)-2-Methyl-4-oxochroman-7-yl)oxy)(pyridin-4-yl)methyl)benzamide] | 1 µM | 15 µM |

From patent publication US12516038B2, “Inhibitors of antigen presentation by HLA-DR” (Janssen Pharmaceutica NV, priority 2020, dated 2026)
